US11566007B2, “Ras inhibitors” (Revolution Medicines, Inc., priority 2019, dated 2023)
Where two headings read alike, the source gives them in different places.

Columns and labels:
KRAS Q61H = KRAS Q61H (Homo sapiens (Human), UniProt P01116+P62937, Q61H); assay: Ras-Raf (BRAF RBD) disruption / FRET / MOA assay, KRAS Q61H; type: biochemical; conditions: Ras-Raf disruption/FRET/MOA assay; class symbols; read-out: KRAS Q61H FRET data IC50
How it was run: (§1)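 Compounds (30 μM top final, 10-point 3-fold dilutions) incubated 3 h at 25° C with nucleotide-loaded Ras, cyclophilin A and BRAF RBD. Detection with 10 nM anti-His Eu-W1024 and 50 nM anti-GST allophycocyanin over another 1.5 h. Lowered TR-FRET ratio relative to DMSO wells gives IC50.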

NRAS Q61K = NRAS Q61K (Homo sapiens (Human), UniProt P01111+P62937, Q61K); assay: Ras-Raf (BRAF RBD) disruption / FRET / MOA assay, NRAS Q61K; type: biochemical; conditions: NRAS Q61K; Ras-Raf disruption/FRET/MOA assay; read-out: IC50* NRAS Q61K FRET data
How it was run: as §1

NRAS Q61R = NRAS Q61R (Homo sapiens (Human), UniProt P01111+P62937, Q61R); assay: Ras-Raf (BRAF RBD) disruption / FRET / MOA assay, NRAS Q61R; type: biochemical; conditions: NRAS Q61R; Ras-Raf disruption/FRET/MOA assay; read-out: IC50* NRAS Q61R FRET data
How it was run: as §1

NCI-H358 (K-Ras G12C) = assay: CellTiter-Glo cell viability assay, NCI-H358; type: cell-based, human; conditions: Homo sapiens, NCI-H358, 120 h, class symbols
How it was run: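 Four-parameter logistic fits were applied to luminescence data normalized against DMSO-treated wells. Readings were taken on day 5 following direct compound addition, after roughly 30 minutes at room temperature.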

K-Ras G13C = K-Ras G13C (Homo sapiens (Human), UniProt P01116+P62937, G13C); assay: Ras-Raf (BRAF RBD) disruption / FRET / MOA assay, KRAS G13C; type: biochemical; conditions: KRAS G13C; Ras-Raf disruption/FRET/MOA assay; read-out: IC50* KRAS G13C FRET data
How it was run: (§2)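 Compound-driven ternary complex of nucleotide-loaded Ras with cyclophilin A, disrupting BRAF RBD binding. 10-point 3-fold dilution from 30 μM final, 3 h at 25° C, then anti-His Eu-W1024 (10 nM) and anti-GST allophycocyanin (50 nM) for 1.5 h. IC50 from TR-FRET ratio decrease versus DMSO.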

KRAS WT = KRAS WT (Homo sapiens (Human), UniProt P01116+P62937); assay: Ras-Raf (BRAF RBD) disruption / FRET / MOA assay, KRAS WT; type: biochemical; conditions: read-out: IC50* KRAS WT FRET data
How it was run: as §2

KRAS G12D = KRAS G12D (Homo sapiens (Human), UniProt P01116+P62937, G12D); assay: Ras-Raf (BRAF RBD) disruption / FRET / MOA assay, KRAS G12D; type: biochemical; conditions: Ras-Raf disruption/FRET/MOA assay; class symbols; read-out: KRAS G12D FRET data IC50
How it was run: as §2

[1] = NCI-H358, 5-day treatment, read-out: Additional H358 Cell Viability assay data (K-Ras G12C, IC50)

Sequence of NRAS Q61K (P01111 whole entry Q61K): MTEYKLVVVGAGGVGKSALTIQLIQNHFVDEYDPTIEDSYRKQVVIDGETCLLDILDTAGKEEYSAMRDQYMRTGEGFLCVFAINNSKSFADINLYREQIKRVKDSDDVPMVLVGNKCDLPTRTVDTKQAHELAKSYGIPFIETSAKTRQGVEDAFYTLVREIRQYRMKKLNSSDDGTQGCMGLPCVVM
Sequence of NRAS Q61K (P62937 whole entry): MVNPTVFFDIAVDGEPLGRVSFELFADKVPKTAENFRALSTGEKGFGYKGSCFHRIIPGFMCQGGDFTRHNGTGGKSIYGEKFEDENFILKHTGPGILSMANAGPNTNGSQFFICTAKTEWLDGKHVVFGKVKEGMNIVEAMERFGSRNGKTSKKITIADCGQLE
Sequence of KRAS G12D (P01116-2 other isoform, or with tags, fused parts or gaps G12D): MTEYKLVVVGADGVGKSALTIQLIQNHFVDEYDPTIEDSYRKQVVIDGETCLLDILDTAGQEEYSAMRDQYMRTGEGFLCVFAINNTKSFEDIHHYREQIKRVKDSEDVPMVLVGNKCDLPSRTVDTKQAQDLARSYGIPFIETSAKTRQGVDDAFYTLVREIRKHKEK
Sequence of KRAS G12D (P62937 whole entry): as the sequence (P62937 whole entry) above
Sequence of NRAS Q61R (P01111 whole entry Q61R): as the sequence (P01111 whole entry Q61K) above, with K61R counted along it
Sequence of NRAS Q61R (P62937 whole entry): as the sequence (P62937 whole entry) above
Sequence of KRAS Q61H (P01116-2 other isoform, or with tags, fused parts or gaps Q61H): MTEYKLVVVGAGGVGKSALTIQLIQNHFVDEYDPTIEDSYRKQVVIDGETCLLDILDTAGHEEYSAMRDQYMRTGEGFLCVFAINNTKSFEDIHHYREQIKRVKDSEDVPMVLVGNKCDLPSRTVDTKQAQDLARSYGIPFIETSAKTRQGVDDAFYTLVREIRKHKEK
Sequence of KRAS Q61H (P62937 whole entry): as the sequence (P62937 whole entry) above
Sequence of KRAS WT (P01116-2 other isoform, or with tags, fused parts or gaps): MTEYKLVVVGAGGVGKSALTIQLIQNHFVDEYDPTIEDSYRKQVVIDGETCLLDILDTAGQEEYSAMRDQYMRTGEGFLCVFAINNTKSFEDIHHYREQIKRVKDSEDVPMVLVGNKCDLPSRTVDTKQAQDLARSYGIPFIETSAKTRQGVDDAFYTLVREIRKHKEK
Sequence of KRAS WT (P62937 whole entry): as the sequence (P62937 whole entry) above
Sequence of K-Ras G13C (P01116-2 other isoform, or with tags, fused parts or gaps G13C): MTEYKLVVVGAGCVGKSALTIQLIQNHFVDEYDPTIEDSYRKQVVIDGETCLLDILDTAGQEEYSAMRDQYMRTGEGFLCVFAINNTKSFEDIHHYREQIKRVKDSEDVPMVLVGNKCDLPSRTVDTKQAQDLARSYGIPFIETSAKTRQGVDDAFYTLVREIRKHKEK
Sequence of K-Ras G13C (P62937 whole entry): as the sequence (P62937 whole entry) above

Compound	IC50 (KRAS Q61H)	IC50 (NRAS Q61K)	IC50 (NRAS Q61R)	IC50 (NCI-H358 (K-Ras G12C); [1])	IC50 (K-Ras G13C)	IC50 (KRAS WT)	IC50 (KRAS G12D)	IC50 (NCI-H358 (K-Ras G12C); read-out: Additional H358 Cell Viability assay data (K-Ras G12C, IC50, uM), NCI-H358, 5-day treatment)
C=CC(=O)N1CC[C@H](C(=O)N(C)[C@H](C(=O)N[C@H]2Cc3cccc(c3)-c3ccc4c(c3)c(c(-c3cccnc3[C@H](C)OC)n4CC3COC3)CC(C)(C)COC(=O)[C@@H]3CCCN(N3)C2=O)C(C)C)C1 (atropisomer, axis not shown) [Example A481]	1000 to 10000 nM	1000 to 10000 nM	1000 to 10000 nM	0.01 to 0.1 µM	1000 to 10000 nM	1000 to 10000 nM	> 10000 nM	
C=CC(=O)N1CC[C@H](C(=O)N2CCCCC[C@H]2C(=O)N[C@H]2Cc3nc(cs3)-c3ccc4c(c3)c(c(-c3cccnc3[C@H](C)OC)n4CC)CC(C)(C)COC(=O)[C@@H]3CCCN(N3)C2=O)C1 (atropisomer, axis not shown) [Example A495]	1000 to 10000 nM	1000 to 10000 nM	1000 to 10000 nM	0.01 to 0.1 µM	1000 to 10000 nM	1000 to 10000 nM	> 10000 nM	
C=CC(=O)N(C)CCN1CCN(C(=O)N(C)[C@H](C(=O)N[C@H]2Cc3cccc(c3)-c3ccc4c(c3)c(c(-c3cccnc3[C@H](C)OC)n4CC)CC(C)(C)COC(=O)[C@@H]3CCCN(N3)C2=O)C(C)C)CC1 (atropisomer, axis not shown) [Example A539]	100 to 1000 nM	100 to 1000 nM	100 to 1000 nM	0.1 to 1 µM	10 to 100 nM	100 to 1000 nM	1000 to 10000 nM	
C=CC(=O)N1CCOC2(CCN(C(=O)N(C)[C@H](C(=O)N[C@H]3Cc4cc(C(F)F)cc(n4)-c4ccc5c(c4)c(c(-c4cccnc4[C@H](C)OC)n5CC(F)(F)F)CC(C)(C)COC(=O)[C@@H]4CCCN(N4)C3=O)C(C)C)CC2)C1 (atropisomer, axis not shown) [Example A541]	100 to 1000 nM	100 to 1000 nM	100 to 1000 nM	0.01 to 0.1 µM	10 to 100 nM	100 to 1000 nM	1000 to 10000 nM	
C=CC(=O)N1CCC[C@]12CCN(C(=O)N(C)[C@H](C(=O)N[C@H]1Cc3nc(cs3)-c3ccc4c(c3)c(c(-c3cccnc3[C@H](C)OC)n4CC)CC(C)(C)COC(=O)[C@@H]3CCCN(N3)C1=O)C(C)C)C2 (atropisomer, axis not shown) [Example A548]	100 to 1000 nM	100 to 1000 nM	100 to 1000 nM	0.1 to 1 µM	1000 to 10000 nM	100 to 1000 nM	1000 to 10000 nM	
C=CC(=O)N(C)CCN1CCN(C(=O)N(C)[C@H](C(=O)N[C@H]2Cc3cccc(c3)-c3ccc4c(c3)c(c(-c3cccnc3[C@H](C)OC)n4CC)CC(C)(C)COC(=O)[C@@H]3CCCN(N3)C2=O)C(C)C)C[C@H]1C (atropisomer, axis not shown) [Example A553]	100 to 1000 nM	1000 to 10000 nM	1000 to 10000 nM	0.1 to 1 µM	10 to 100 nM	100 to 1000 nM	1000 to 10000 nM	
C=CC(=O)N1CCC2(CCN(C(=O)N(C)[C@H](C(=O)N[C@H]3Cc4cccc(c4)-c4ccc5c(c4)c(c(-c4cccnc4[C@H](C)OC)n5CC)CC(C)(C)COC(=O)[C@@H]4CCCN(N4)C3=O)C(C)C)CC2)C1 (atropisomer, axis not shown) [Example A554]	100 to 1000 nM	100 to 1000 nM	100 to 1000 nM	0.1 to 1 µM	10 to 100 nM	100 to 1000 nM	1000 to 10000 nM	
C=CC(=O)N1CC[C@]2(C1)OCN([C@H](C(=O)N[C@H]1Cc3cc(cc(C(F)F)c3)-c3ccc4c(c3)c(c(-c3cccnc3[C@H](C)OC)n4CC)CC(C)(C)COC(=O)[C@@H]3CCCN(N3)C1=O)C(C)C)C2=O (atropisomer, axis not shown) [Example A557]	10 to 100 nM	1000 to 10000 nM	1000 to 10000 nM	0.1 to 1 µM	100 to 1000 nM	100 to 1000 nM	1000 to 10000 nM	
CCn1c(-c2cccnc2[C@H](C)OC)c2c3cc(ccc31)-c1cccc(c1)C[C@H](NC(=O)[C@H](C(C)C)N1CC[C@]3(CCN(C(=O)C#C[C@H]4COCCN4C4COC4)C3)C1=O)C(=O)N1CCC[C@H](N1)C(=O)OCC(C)(C)C2 (atropisomer, axis not shown) [Example A568]	1000 to 10000 nM	> 10000 nM	> 10000 nM	0.01 to 0.1 µM	1000 to 10000 nM	> 10000 nM	> 10000 nM	
CCn1c(-c2cccnc2[C@H](C)OC)c2c3cc(ccc31)-c1cccc(c1)C[C@H](NC(=O)[C@H](C(C)C)N1CC[C@]3(CCN(C(=O)C#C[C@@H]4COCCN4C)C3)C1=O)C(=O)N1CCC[C@H](N1)C(=O)OCC(C)(C)C2 (atropisomer, axis not shown) [Example A569]	1000 to 10000 nM	> 10000 nM	> 10000 nM		1000 to 10000 nM	10 to 100 nM	> 10000 nM	0.01 to 0.1 µM
C=CC(=O)N(C)CCN1CCN(C(=O)N(C)[C@H](C(=O)N[C@H]2Cc3cccc(c3)-c3ccc4c(c3)c(c(-c3cccnc3[C@H](C)OC)n4CC)CC(C)(C)COC(=O)[C@@H]3CCCN(N3)C2=O)C(C)C)C[C@@H]1C (atropisomer, axis not shown) [Example A570]	100 to 1000 nM	100 to 1000 nM	100 to 1000 nM	0.1 to 1 µM	10 to 100 nM	100 to 1000 nM	1000 to 10000 nM	
C=CC(=O)N1CCO[C@H]2CN(C(=O)N(C)[C@H](C(=O)N[C@H]3Cc4nc(n(C)n4)-c4ccc5c(c4)c(c(-c4cccnc4[C@H](C)OC)n5CC(F)(F)F)CC(C)(C)COC(=O)[C@@H]4CCCN(N4)C3=O)C(C)C)C[C@H]21 (atropisomer, axis not shown) [Example A575]	100 to 1000 nM	100 to 1000 nM	100 to 1000 nM	0.01 to 0.1 µM	10 to 100 nM	100 to 1000 nM	1000 to 10000 nM	
C=CC(=O)N1CCO[C@]2(CCN(C(=O)N(C)[C@H](C(=O)N[C@H]3Cc4nc(cs4)-c4ccc5c(c4)c(c(-c4cccnc4[C@H](C)OC)n5CC(F)(F)F)CC(C)(C)COC(=O)[C@@H]4CCCN(N4)C3=O)C(C)C)C2)C1 (atropisomer, axis not shown) [Example A593]	100 to 1000 nM	100 to 1000 nM	100 to 1000 nM	0.1 to 1 µM	100 to 1000 nM	1000 to 10000 nM	1000 to 10000 nM	
CCn1c(-c2cccnc2[C@H](C)OC)c2c3cc(ccc31)-c1csc(n1)C[C@H](NC(=O)[C@H](C(C)C)N(C)C(=O)N1CCC13CN(C(=O)/C=C/CN(C)C)C3)C(=O)N1CCC[C@H](N1)C(=O)OCC(C)(C)C2 (atropisomer, axis not shown) [Example A598]	< 10 nM	10 to 100 nM	10 to 100 nM	0.01 to 0.1 µM	100 to 1000 nM	10 to 100 nM	100 to 1000 nM	
C=CC(=O)N1CCOC2(CCN(C(=O)N(C)[C@H](C(=O)N[C@H]3Cc4cccc(n4)-c4ccc5c(c4)c(c(-c4cccnc4[C@H](C)OC)n5CC(F)(F)F)CC(C)(C)COC(=O)[C@@H]4CCCN(N4)C3=O)C(C)C)CC2)C1 (atropisomer, axis not shown) [Example A607, 4-acryloyl-N-((2S)-1-(((6^3S,4S)-1^2-(2-((S)-1-methoxyethyl)pyridin-3-yl)-10,10-dimethyl-5,7-dioxo-1^1-(2,2,2-trifluoroethyl)-6^1,6^2,6^3,6^4,6^5,6^6-hexahydro-1^1H-8-oxa-1(5,3)-indola-6(1,3)-pyridazina-2(2,6)-pyridinacycloundecaphane-4-yl)amino)-3-methyl-1-oxobutan-2-yl)-N-methyl-1-oxa-4,9-diazaspiro[5.5]undecane-9-carboxamide]	100 to 1000 nM	100 to 1000 nM	100 to 1000 nM	0.01 to 0.1 µM	10 to 100 nM	100 to 1000 nM	1000 to 10000 nM	
CCn1c(-c2cccnc2[C@H](C)OC)c2c3cc(ccc31)-c1csc(n1)C[C@H](NC(=O)[C@H](C(C)C)N(C)C(=O)N1CCC13CN(C(=O)/C=C/CN1CCOCC1)C3)C(=O)N1CCC[C@H](N1)C(=O)OCC(C)(C)C2 (atropisomer, axis not shown) [Example A611]	10 to 100 nM	10 to 100 nM	10 to 100 nM	0.01 to 0.1 µM	100 to 1000 nM	100 to 1000 nM	1000 to 10000 nM	
